Results reported in paper PMC6487404, “An Investigation into the Role of P-Glycoprotein in the Intestinal Absorption of Repaglinide: Assessed by Everted Gut Sac and Caco-2 Cell Line” (Iranian Journal of Pharmaceutical Research : IJPR, 2019).
Like-named read-outs stand apart in the source and are kept apart here. Each block holds one compound with its values, some of them ahead of it.

Legend:
[1] = tested on: Caco-2 cell monolayers; test: Bi-directional transport of REG across Caco-2 cell monolayers; type: in vitro ADME; conditions: Caco-2 results, ER and effect of P-gp inhibitors
Procedure: (§1) Caco-2 cells (purchased from Pasteur Institute of Iran) were grown on 75 cm^2 plastic culture flasks, containing 15% (V/V) fetal bovine serum (FBS), 50% RPMI 1640, 34% DMEM and 1% (V/V) penicillin–streptomycin at 37 °C in a 95% humidified air with 5% CO2. The growth medium was changed every other day, and the cells were trypsinized using Trypsin-EDTA every 4 days for passage. The cells with passage numbers of 35-40 were used for the drug transport experiments.
(§2) When reaching 80–90% confluency, for transport study, the cells were seeded on polycarbonate filter inserts (with pore size of 0.4 µm, 1.13 cm^2 surface area, Korea) at a density of 5 × 10^4 cells/cm^2 and grown for 21 days to allow full expression of P-gp and appropriate tight junctions. To evaluate the integrity of cellular monolayer, the transepithelial electrical resistance (TEER) was measured and transport studies were conducted when the TEER values were more than 300-400 Ωcm^2. Before conducting drug transport experiments, the cells were washed twice with HBSS containing 25 mM HEPES (pH 7.4, 37 °C). Then, monolayers were pre-incubated at 37 °C for 30 min, and TEER values were measured. HBSS/HEPES buffer on both sides of the cell monolayers was then removed by aspiration and replaced with REG solution with various concentrations (20, 40 and 60 µM) on one side of the cell layer, apical (A) or basolateral (B), and fresh blank buffer on the other side. The volume of the buffer on the apical and basolateral side of the cell layer was 0.3 mL and 0.7 mL, respectively. The monolayers were incubated at 37 °C, placed in a shaker and shaken at 50 rpm during the transport process. The samples were taken from the receptor chamber (apical side or basolateral side in the case of B-A and A-B transport studies, respectively) at 30, 60, 90, 120 and 180 min, and then replaced with the same volume of the pre-warmed fresh buffer. Each experiment was repeated three times and REG concentration was determined by the HPLC system. The inhibition of REG efflux across Caco-2 cells was examined in the presence of two common P-gp inhibitors: verapamil (100 μM) and valspodar (5 μM).
(§3) HPLC was conducted using a system consisting of a Wellchrom K-1001 HPLC pump and a K-2700 diode array UV/VIS spectrophotometric detector (Knauer, Germany). The analyses were conducted at ambient temperature on a Perfect Sil RP-18 (150 mm × 4.6 mm i.d., Merck). The optimal mobile phase for REG was a mixture of acetonitrile and phosphate buffer 0.02 M (60:40 V/V) delivered at a flow rate of 1 mL/min. The detection wavelength was set at 242 nm and the injection volume was 100 μL. The column temperature was maintained at room temperature. The calibration curves were linear over the concentration range of 100-1000 ng/mL (R^2 > 0.994). The intra-day and inter-day coefficients of the variation (CV) were all less than 5%.
(§4) Apparent permeability coefficients (Papp) of REG were calculated in everted gut sac and Caco-2 cell line according to the below equation ([19]): […]
(§5) Where the dQ/dt (ng/min) is drug permeation rate, A (cm^2) the cross sectional area, and C0 (ng/mL) the initial concentration of REG in the donor chamber. In Caco-2 cell, the Papp of REG was calculated in both apical to basolateral (papp.AB), and basolateral to apical (papp.BA) directions. The efflux ratio (ER) of the drug in Caco-2 cell was assessed by calculating the ratio of papp.BA to papp.AB (papp.BA/papp.AB). TEER was calculated based on the following equation ([16]): […]

[2] = as above; type: in vitro ADME; conditions: human, Caco-2, mean ± SD, n = 3
Procedure: as §1, §2, §3, §4, §5

[3] = tested on: P-gp; test: as above; type: in vitro ADME; conditions: human, Caco-2, mean ± SD, n = 3; for efflux ratio at 180 min, 40 µM: read-out: ER (efflux ratio, papp.BA/papp.AB)
Procedure: as §1, §2, §3, §4, §5

[4] = Everted gut sac transport of REG, mucosal to serosal; type: in vitro ADME, rat; conditions: for Increase in drug permeability in presence of inhibitor: everted gut sac
Procedure: The everted sac method was used as previously described ([11]). All animal experiments were approved by the local ethics committee of Shahid Beheshti University of Medical Sciences (Tehran, Iran). Male Wistar rats weighing 230 and 250 g were fasted for 24 h but were allowed free access to water. Under deep anesthesia, the jejunum of the rat intestines (approximately 10 cm) was quickly excised, and the underlying mesenterium was removed. The segment was washed several times with normal saline solution and placed immediately into the oxygenated Krebs buffer (composition: NaCl 118 mM, NaHCO3 25 mM, KCl 4.7 mM, CaCl22.5 mM, MgSO4 1.2 mM, KH2PO4 1.2 mM, and d-glucose 11 mM). The intestine was carefully everted on a glass rod (3.0 mm diameter), filled with 2 mL of Krebs buffer, and divided into sacs approximately 4.5 cm in length with silk suture. The sacs were placed in the oxygenated buffer solution (pH 6.8). The solution was maintained at 37 °C with 95% O2 and 5% CO2 throughout the experiment.
Sacs were placed in 25 mL of oxygenated buffer solutions (pH 6.8) containing different concentrations of REG (10 to 100 µM) with or without the P-gp inhibitors at the typically used inhibitory concentrations: verapamil (100 µM), valspodar (5 µM), or ketoconazole (10 µM) ([12]-[14]). At various time points, 10, 20, 35, 45, 60, and 90 min, sacs were removed, blotted dry, and the serosal contents were collected. REG serosal concentration was determined by a validated HPLC method (Section 2.4). Each sac was weighed before and after the experiment to calculate the fluid volume inside the sac.
as §3, §4, §5

[5] = tested on: Caco-2 cell monolayers; test: Lucifer yellow passage across Caco-2 monolayers (monolayer integrity); type: in vitro ADME; conditions: 100 µg/mL, 37 °C, all the experiments
Procedure: To determine the cell monolayers integrity, the TEER values and percent of Lucifer yellow transport across the cell monolayers were measured. The TEER was measured using an EVOM 2 Epithelial Voltohmmeter (World Precision Instrument, Sarasota, USA). The transport studies were conducted when the TEER values were more than 300-400 Ωcm^2. A reduction in the TEER recorded across a monolayer indicates the dilation of tight junctions or a disruption of the monolayer ([16], [17]). Lucifer yellow is a small hydrophilic fluorescent molecule that is easily detectable by spectrophotofluorometer (485 nm excitation and 535 nm emission). The paracellular transfer of Lucifer yellow was determined and served as an additional marker for the epithelial cell tightness. In each set of experiments, Lucifer yellow was added (100 µg/mL) to the inserts and its passage was evaluated at 37 °C ([18]).
Where TEERmono is the cell monolayer and porous membrane resistance, TEERblank the porous membrane resistance, and A the porous membrane surface area. The Lucifer yellow transport was calculated according to the following equation ([18]):
Lucifer Yellow Passage% = [(Ft − Fb)/(F0 − Fb)] × 100
Ft is the fluorescence intensity of Lucifer yellow across the monolayer, F0 the initial fluorescence intensity of Lucifer yellow on the donor side, and Fb the fluorescence intensity of the blank sample (HBSS/HEPES buffer alone).

[6] = pH 7.4, with valspodar 5 µM, REG 40 µM + valspodar 5 µM
[7] = pH 7.4, with verapamil 100 µM, REG 40 µM + verapamil 100 µM

efflux ratio at 180 min, 20 µM ([2]; Caco-2, pH 7.4, REG 20 µM, read-out: ER (efflux ratio, papp.BA/papp.AB)): 0.64 ± 0.02
efflux ratio at 180 min, 40 µM ([2]; Caco-2, pH 7.4, REG 40 µM, read-out: ER (efflux ratio, papp.BA/papp.AB)): 0.65 ± 0.05
efflux ratio at 180 min, 60 µM ([2]; Caco-2, pH 7.4, REG 60 µM, read-out: ER (efflux ratio, papp.BA/papp.AB)): 0.8 ± 0.07
Papp A→B at 180 min, 20 µM ([2]; pH 7.4, REG 20 µM): 16.7 ± 0.4 ×10⁻⁶ cm/s
Papp B→A at 180 min, 20 µM ([2]; pH 7.4, REG 20 µM): 10.7 ×10⁻⁶ cm/s
Papp A→B at 180 min, 40 µM ([2]; pH 7.4, REG 40 µM): 18.4 ± 1.2 ×10⁻⁶ cm/s
Papp B→A at 180 min, 40 µM ([2]; pH 7.4, REG 40 µM): 11.9 ×10⁻⁶ cm/s
Papp A→B at 180 min, 60 µM ([2]; pH 7.4, REG 60 µM): 18.3 ± 0.4 ×10⁻⁶ cm/s
Papp B→A at 180 min, 60 µM ([2]; pH 7.4, REG 60 µM): 14.6 ×10⁻⁶ cm/s
efflux ratio at 180 min, 40 µM ([3]; Caco-2, pH 7.4, with valspodar 5 µM, REG 40 µM + valspodar 5 µM): 0.68 ± 0.07
efflux ratio at 180 min, 40 µM ([3]; Caco-2, pH 7.4, with verapamil 100 µM, REG 40 µM + verapamil 100 µM): 0.61 ± 0.09
Papp A→B at 180 min, 40 µM [3, 6]: 16.4 ± 0.5 ×10⁻⁶ cm/s
Papp B→A at 180 min, 40 µM [3, 6]: 11.2 ×10⁻⁶ cm/s
Papp A→B at 180 min, 40 µM [3, 7]: 19.6 ± 2.7 ×10⁻⁶ cm/s
Papp B→A at 180 min, 40 µM [3, 7]: 11.8 ± 1.2 ×10⁻⁶ cm/s
Increase in drug permeability in presence of inhibitor ([4]; REG 20 µM plus ketoconazole 10 µM versus control): 3 fold
Increase in drug permeability in presence of inhibitor ([4]; REG 20 µM plus valspodar 5 µM versus control): 2.6 fold
Increase in drug permeability in presence of inhibitor ([4]; REG 20 µM plus verapamil 100 µM versus control): 3 fold
Apparent permeability coefficient (Papp) across everted gut sacs ([4]; REG 40 µM, mucosal to serosal, rat jejunum, pH 6.8, mean ± SD, n = 3): 1.23 ± 0.19 × 10^-5 cm/s
Apparent permeability coefficient (Papp) across everted gut sacs ([4]; REG 100 µM, mucosal to serosal, rat jejunum, pH 6.8, mean ± SD, n = 3): 3.29 ± 0.58 × 10^-5 cm/s
Papp at 90 min, 40 µM ([4]; male, Wistar, rat, pH 6.8, drug concentration 40 µM, read-out: Papp in everted gut sacs (abstract)): 12.3 ×10⁻⁶ cm/s
Papp at 90 min, 100 µM ([4]; male, Wistar, rat, pH 6.8, drug concentration 100 µM, read-out: Papp in everted gut sacs (abstract)): 32.9 ×10⁻⁶ cm/s
Papp at 90 min, 10 µM ([4]; male, Wistar, REG 10 µM, mucosal to serosal, rat jejunum, pH 6.8, mean ± SD, n = 3, read-out: Apparent permeability coefficient (Papp) across everted gut sacs): 12.1 ± 1.4 ×10⁻⁶ cm/s
Papp at 90 min, 20 µM ([4]; male, Wistar, REG 20 µM, mucosal to serosal, rat jejunum, pH 6.8, mean ± SD, n = 3, read-out: Apparent permeability coefficient (Papp) across everted gut sacs): 11.6 ± 0.9 ×10⁻⁶ cm/s
Compound: CCOc1cc(CC(=O)N[C@@H](CC(C)C)c2ccccc2N2CCCCC2)ccc1C(=O)O [REG, Repaglinide]
P-gp substrate recognition (FDA guidance criteria) [1]: cannot be considered as a distinct P-gp substrate

Transport (passage) of Lucifer yellow across the monolayer [5]: < 0.3%
Compound: Lucifer yellow
